From patent US4742069A, “Sulfonamide containing dihydropyridine derivatives, intermediates and medicinal use” (Hoffmann-La Roche Inc., priority 1984, dated 1988) come the findings set out here.

Experiment [1] concerns ^3 H-nifedipine (or ^3 H-nitrendipine) binding, rabbit or guinea pig heart membranes. Description: 3H-Nifedipine binding determinations. The note with it: for A: % max. inhib. (maximum inhibition of specific binding): reference compound nifedipine established as 100%. The method, then:
A. ^3 H-Nifedipine binding determinations:
The determination is carried out on homogenates or on partially-cleaned membranes of rabbit or guinea pig heart. The reaction mixture (0.3 ml) consists of 0.2-0.8 mg of membrane protein, 1 nM of ^3 H-nifedipine (or 0.25 nM of ^3 H-nitrendipine) and various concentrations of the test substances. The incubation lasts 30 minutes at 25° C. or 37° C. and is stopped by dilution with the incubation buffer; a filtration is subsequently carried out. The filter-bound radioactivity is measured with a scintillation counter. Specific binding (i.e. receptor-bound) is defined as the difference between total and unspecific-bound radioactivity. The unspecific binding is determined in the presence of an excess of non-radioactive nifedipine (1 μM).
The activity (potency) of a compound in this test is defined by the IC50 and % maximum inhibition values (% max. inhibition). The IC50 is the substance concentration (in mol/l) which produces a half-maximum inhibition of the specific ^3 H-nifedipine (or ^3 H-nitrendipine) binding. In the table compound A has an IC50 in mol/l, of 3.0.10^-8 which means 3.0×10^-8. The maximum inhibition of the specific binding is given by the % maximum inhibition value; this value is established as 100% for the reference compound nifedipine. Both parameters are extrapolated from a concentration-binding curve.

The test system of experiment [2] is KCl contracture of coronary artery strips of dogs (tension-dependent calcium channel). Kind of experiment: Coronary artery strips of dogs, relaxation of KCl contracture. Type of experiment: cell-based, dog. The note with it: Canis lupus familiaris; KCl 84.7 mM, 37° C.; read-out: B: IC50 (half-maximum relaxation of KCl contracture). The method, then:
B. Coronary artery strips of dogs:
In this experiment spiral strips (2-2.5 mm wide and 10 mm long) of coronary arteries of dogs are cut and hung up in an organ chamber under an initial tension of 1.5 g. These strips are pre-incubated for a duration of about 1 to 2 hours in Krebs-Henseleit buffer solution which is gassed with Oxycarbon (a mixture of 95% oxygen and 5% carbon dioxide) at 37° C. The relaxing activity of one of these substances is subsequently tested on a KCl (84.7 mM) contracture by the addition of increasing concentrations of the test substance to the organ chamber. The calcium channel-blocking activity of the test substances can therefore be established, as the KCl contracture occurs exclusively by means of calcium flow through the tension-dependent calcium channel.
The activity of a test substance in this test is given by the IC50 value. This value is defined as the substance concentration (in mol/l) which produces a half-maximum relaxation of a KCl contracture. This value is also extrapolated from the resulting concentration-activity curve.

In a further experiment the test system is narcotized dog. Kind of experiment: Hemodynamic parameters in the narcotized dog. Type of experiment: in vivo. The text has this: C. Hemodynamic parameters in the narcotized dog:
The 4 most important measurement parameters (with respective measurement units) of the hemodynamic experiment are: (1) CBF: Coronary Blood Flow (in ml/min)--the velocity of blood flow through the coronary arteries; (2) HR: heart rate (in beats/min)--the heart frequency; (3) BP: blood pressure (in mm Hg); and (4) dp/dt: rate of increase in left ventricular pressure (in mm Hg/sec) as a measurement of the contractility force of the heart. The values are given as the % maximum variation from the initial value (Δ%) and the duration in minutes of this variation (t) per dosage administered.
There is thus obtained not only an overall picture of the activity of the substance, but also an estimation as to the potential selectivity for a specific part of the circulatory system in the entire organism. After the administration of an anesthetic, the dog is intubated and respired artificially. Blood pH, pCO2, pO2 and hemoglobin are measured hourly with a blood-gas analyzer. The blood pressure (systolic and diastolic) is measured with a probe in the aorta abdominalis. The heart frequency is recorded by means of a tachometer, which is disengaged from the pressure pulse. For the other measurements the heart must first be opened in order that a probe can be inserted in the left ventricle (heart chamber) for the pressure measurements (dp/dt). The coronary blood flow is measured with a flowing probe in the left coronary artery (descendens).
This allows the prediction that they are useful as agents in the control or prevention of angina pectoris, ischemia, high blood pressure and migraine.

For `CNS(=O)(=O)CC(=O)C1=C(C)NC(C)=C(C(=O)OCC(F)(F)F)C1c1cccc([N+](=O)[O-])c1` (centres unmarked) [C, 1,4-dihydro-2,6-dimethyl-5-[(methylsulfamoyl)acetyl]-4-(3-nitrophenyl)nicotinic acid 2,2,2-trifluoroethyl ester], the “A: % max. inhib. (maximum inhibition of specific binding)” value in experiment [1] is 100%. Moreover, the IC50 – broadly, the concentration needed to halve the response being measured – in experiment [2] is 9.5 nM. In addition, in the experiment on narcotized dog (0.1 mg/kg p.o.), the “BP blood pressure, duration of variation (t)” value (shortened to “BP blood pressure, duration”) was greater than 180 min; the “BP blood pressure, maximum variation from initial value (Δ%)” value (shortened to “BP blood pressure … (Δ%)”) was -16%; the “CBF coronary blood flow, duration of variation (t)” value (from here on “CBF coronary blood flow, duration”) was 180 min; the “CBF coronary blood flow, maximum variation from initial value (Δ%)” value (“CBF coronary blood flow … (Δ%)” below) is recorded as 88%. Further, in the experiment on narcotized dog (0.1 mg/kg p.o.), the “HR heart rate, duration of variation (t)” value came out at 120 min; the “HR heart rate, maximum variation from initial value (Δ%)” value (from here on “HR heart rate, maximum variation … (Δ%)”) is given as “+2%”; the “dp/dt rate of increase in left ventricular pressure, maximum variation from initial value (Δ%)” value (from here on “dp/dt rate of increase … (Δ%)”) turned out to be 33%; the “dp/dt, duration of variation (t)” value is 180 min.

`COC(=O)C1=C(C)NC(C)=C(C(=O)OC)C1c1ccccc1[N+](=O)[O-]` [nifedipine, reference compound]: the “A: % max. inhib. (maximum inhibition of specific binding)” value in experiment [1] is recorded as 100%.

As to `CC1=C(C(=O)CS(=O)(=O)NC(C)C)C(c2cc([N+](=O)[O-])ccc2Cl)C(C(=O)OC(C)C)=C(C)N1` (centres unmarked) [D, 4-(2-chloro-5-nitrophenyl)-1,4-dihydro-5-[(isopropylsulfamoyl)acetyl]-2,6-dimethylnicotinic acid isopropyl ester], the “A: % max. inhib. (maximum inhibition of specific binding)” value in experiment [1] is 100%. Besides, in experiment [2], the concentration for half-maximal inhibition (IC50) came to 0.82 nM. Also, in the experiment with narcotized dog (0.03 mg/kg p.o.), the “BP blood pressure, duration” value is greater than 60 min; the “BP blood pressure … (Δ%)” value was -9%; the “CBF coronary blood flow, duration” value is greater than 120 min; the “CBF coronary blood flow … (Δ%)” value came to 68%. Besides, in the experiment with narcotized dog (0.03 mg/kg p.o.), the “HR heart rate, duration of variation (t)” value was determined as 60 min; the “HR heart rate, maximum variation … (Δ%)” value is given as -5%; the “dp/dt rate of increase … (Δ%)” value stood at 75%; the “dp/dt, duration of variation (t)” value is 90 min.

For `CC1=C(C(=O)CS(=O)(=O)NC(C)C)[C@H](c2cccc([N+](=O)[O-])c2)C(C(=O)O[C@@H](C)c2ccccc2)=C(C)N1` [G, (S)-1,4-dihydro-5-[(isopropylsulfamoyl)acetyl]-2,6-dimethyl-4-(3-nitrophenyl)nicotinic acid (S)-1-phenylethyl ester], the “A: % max. inhib. (maximum inhibition of specific binding)” value in experiment [1] came to 100%. For the same compound, in experiment [2], the IC50 is 7.4 nM. In addition, in the experiment on narcotized dog (0.03 mg/kg p.o.), the “BP blood pressure, duration” value was greater than 120 min; the “BP blood pressure … (Δ%)” value is given as -36%; the “CBF coronary blood flow, duration” value was greater than 120 min; the “CBF coronary blood flow … (Δ%)” value was found to be 57%. Moreover, in the experiment on narcotized dog (0.03 mg/kg p.o.), the “HR heart rate, duration of variation (t)” value was greater than 120 min; the “HR heart rate, maximum variation … (Δ%)” value is -13%; the “dp/dt rate of increase … (Δ%)” value turned out to be 29%; the “dp/dt, duration of variation (t)” value was greater than 120 min.

Take `CNS(=O)(=O)CC(=O)C1=C(C)NC(C)=C(C(=O)OC(C)C)C1c1cccc([N+](=O)[O-])c1` (centres unmarked) [B, 1,4-dihydro-2,6-dimethyl-5-[(methylsulfamoyl)acetyl]-4-(3-nitrophenyl)nicotinic acid isopropyl ester]: the “A: % max. inhib. (maximum inhibition of specific binding)” value in experiment [1] worked out at 94%. In addition, the 50% inhibitory concentration (IC50) in experiment [2] was determined as 16 nM. For the same compound, in the experiment on narcotized dog (0.03 mg/kg p.o.), the “BP blood pressure, duration” value is greater than 90 min; the “BP blood pressure … (Δ%)” value was -8%; the “CBF coronary blood flow, duration” value is greater than 90 min; the “CBF coronary blood flow … (Δ%)” value was 120%. Further, in the experiment on narcotized dog (0.03 mg/kg p.o.), the “HR heart rate, maximum variation … (Δ%)” value worked out at 0%; the “dp/dt rate of increase … (Δ%)” value was determined as 10%; the “dp/dt, duration of variation (t)” value is greater than 90 min.

Turning to `CCCOCCOC(=O)C1=C(C)NC(C)=C(C(=O)CS(=O)(=O)NC(C)C)C1c1cccc([N+](=O)[O-])c1` (centres unmarked) [F, 1,4-dihydro-5-[(isopropylsulfamoyl)acetyl]-2,6-dimethyl-4-(3-nitrophenyl)nicotinic acid 2-propoxyethyl ester], in experiment [1], the “A: % max. inhib. (maximum inhibition of specific binding)” value is recorded as 99%. For the same compound, in experiment [2], the concentration for half-maximal inhibition (IC50) came to 0.6 nM. In the experiment with narcotized dog (0.03 mg/kg p.o.), the “BP blood pressure, duration” value is greater than 60 min; the “BP blood pressure … (Δ%)” value is -11%; the “CBF coronary blood flow, duration” value amounted to 120 min; the “CBF coronary blood flow … (Δ%)” value is on record as 56%. Besides, in the experiment with narcotized dog (0.03 mg/kg p.o.), the “HR heart rate, duration of variation (t)” value was determined as 16 min; the “HR heart rate, maximum variation … (Δ%)” value is given as -5%; the “dp/dt rate of increase … (Δ%)” value is 34%; the “dp/dt, duration of variation (t)” value was determined as 60 min.

Consider `CCNS(=O)(=O)CC(=O)C1=C(C)NC(C)=C(C(=O)OC(C)C)C1c1cccc([N+](=O)[O-])c1` (centres unmarked) [A, 5-[(Ethylsulfamoyl)acetyl]-1,4-dihydro-2,6-dimethyl-4-(3-nitrophenyl)nicotinic acid isopropyl ester], for which the IC50 in experiment [1] (read-out: IC50 (half-maximum inhibition of specific 3H-nifedipine binding), as repeated in the text) was 30 nM. The “A: % max. inhib. (maximum inhibition of specific binding)” value in experiment [1] is given as 100%. In addition, the IC50 in experiment [2] came out at 6.8 nM. Besides, in the experiment with narcotized dog (0.03 mg/kg p.o.), the “BP blood pressure, duration” value was greater than 60 min; the “BP blood pressure … (Δ%)” value is given as -13%; the “CBF coronary blood flow, duration” value stood at 90 min; the “CBF coronary blood flow … (Δ%)” value worked out at 98%. In the experiment with narcotized dog (0.03 mg/kg p.o.), the “HR heart rate, duration of variation (t)” value turned out to be 60 min; the “HR heart rate, maximum variation … (Δ%)” value is recorded as -11%; the “dp/dt rate of increase … (Δ%)” value is 37%; the “dp/dt, duration of variation (t)” value was 90 min.

On to `CC1=C(C(=O)CS(=O)(=O)NC(C)C)C(c2cc(Cl)ccc2Cl)C(C(=O)OC(C)C)=C(C)N1` (centres unmarked) [E, 4-(2,5-dichlorophenyl)-1,4-dihydro-5-[(isopropylsulfamoyl)acetyl]-2,6-dimethylnicotinic acid isopropyl ester], for which, in experiment [1], the “A: % max. inhib. (maximum inhibition of specific binding)” value is on record as 100%. Besides, the half-maximal inhibitory concentration (IC50) in experiment [2] came out at 6.6 nM. Besides, in the experiment on narcotized dog (0.03 mg/kg p.o.), the “BP blood pressure, duration” value was greater than 120 min; the “BP blood pressure … (Δ%)” value is recorded as -16%; the “CBF coronary blood flow, duration” value came to 70 min; the “CBF coronary blood flow … (Δ%)” value is recorded as 104%. Moreover, in the experiment with narcotized dog (0.03 mg/kg p.o.), the “HR heart rate, duration of variation (t)” value stood at 120 min; the “HR heart rate, maximum variation … (Δ%)” value is listed as -14%; the “dp/dt rate of increase … (Δ%)” value amounted to 65%; the “dp/dt, duration of variation (t)” value was 90 min.
